Source: PMC11285368, “Chasing Red Herrings: Palladium Metal Salt Impurities Feigning KRAS Activity in Biochemical Assays” (Journal of Medicinal Chemistry, 2024)
pIC50: −log10 of the molar value.

How the values were obtained:
Assay type in all cases: biochemical
off target [1] = test: KRAS AlphaScreen, Target #3
Method: (§1) Metal salt solutions for the metal ion interference set (MIIS) were prepared as 10 mM stock solutions in DMSO (see Table 3). All metal salts used have been purchased at highest industrial grade.

KRAS GDP = test: KRAS AlphaScreen, Target #1
Method: as §1

off target [2] = test: MDM2 AlphaScreen, Target #3
Method: as §1

beta-Catenin = target: T1, beta-Catenin (Homo sapiens, UniProt P35222); test: beta-Catenin TR-FRET; settings: read-out: Target #1 IC50
T1 sequence (P35222 1-781): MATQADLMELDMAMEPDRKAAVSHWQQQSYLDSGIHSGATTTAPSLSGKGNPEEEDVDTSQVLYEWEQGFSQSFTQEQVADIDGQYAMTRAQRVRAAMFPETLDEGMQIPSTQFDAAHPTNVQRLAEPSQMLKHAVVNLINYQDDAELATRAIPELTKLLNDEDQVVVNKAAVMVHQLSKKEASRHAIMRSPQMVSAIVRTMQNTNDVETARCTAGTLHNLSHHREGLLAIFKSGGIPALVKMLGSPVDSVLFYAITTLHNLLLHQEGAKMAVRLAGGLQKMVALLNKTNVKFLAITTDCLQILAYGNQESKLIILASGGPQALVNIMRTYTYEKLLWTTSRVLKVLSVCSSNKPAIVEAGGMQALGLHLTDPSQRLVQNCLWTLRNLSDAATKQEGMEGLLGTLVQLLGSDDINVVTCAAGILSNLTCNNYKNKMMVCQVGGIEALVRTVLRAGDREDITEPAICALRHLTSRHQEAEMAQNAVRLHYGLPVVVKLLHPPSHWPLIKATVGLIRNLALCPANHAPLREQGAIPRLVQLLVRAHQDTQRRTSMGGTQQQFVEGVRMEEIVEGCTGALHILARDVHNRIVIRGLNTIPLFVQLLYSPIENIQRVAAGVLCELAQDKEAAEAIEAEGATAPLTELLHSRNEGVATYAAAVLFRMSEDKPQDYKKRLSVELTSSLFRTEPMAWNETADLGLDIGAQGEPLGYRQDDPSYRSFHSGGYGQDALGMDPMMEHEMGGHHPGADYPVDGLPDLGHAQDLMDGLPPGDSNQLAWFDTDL
Method: as §1

NSD3 = target: T2, NSD3 (Homo sapiens, UniProt Q9BZ95); test: NSD3 TR-FRET; settings: read-out: Target #1 IC50
T2 sequence (Q9BZ95 1-1437): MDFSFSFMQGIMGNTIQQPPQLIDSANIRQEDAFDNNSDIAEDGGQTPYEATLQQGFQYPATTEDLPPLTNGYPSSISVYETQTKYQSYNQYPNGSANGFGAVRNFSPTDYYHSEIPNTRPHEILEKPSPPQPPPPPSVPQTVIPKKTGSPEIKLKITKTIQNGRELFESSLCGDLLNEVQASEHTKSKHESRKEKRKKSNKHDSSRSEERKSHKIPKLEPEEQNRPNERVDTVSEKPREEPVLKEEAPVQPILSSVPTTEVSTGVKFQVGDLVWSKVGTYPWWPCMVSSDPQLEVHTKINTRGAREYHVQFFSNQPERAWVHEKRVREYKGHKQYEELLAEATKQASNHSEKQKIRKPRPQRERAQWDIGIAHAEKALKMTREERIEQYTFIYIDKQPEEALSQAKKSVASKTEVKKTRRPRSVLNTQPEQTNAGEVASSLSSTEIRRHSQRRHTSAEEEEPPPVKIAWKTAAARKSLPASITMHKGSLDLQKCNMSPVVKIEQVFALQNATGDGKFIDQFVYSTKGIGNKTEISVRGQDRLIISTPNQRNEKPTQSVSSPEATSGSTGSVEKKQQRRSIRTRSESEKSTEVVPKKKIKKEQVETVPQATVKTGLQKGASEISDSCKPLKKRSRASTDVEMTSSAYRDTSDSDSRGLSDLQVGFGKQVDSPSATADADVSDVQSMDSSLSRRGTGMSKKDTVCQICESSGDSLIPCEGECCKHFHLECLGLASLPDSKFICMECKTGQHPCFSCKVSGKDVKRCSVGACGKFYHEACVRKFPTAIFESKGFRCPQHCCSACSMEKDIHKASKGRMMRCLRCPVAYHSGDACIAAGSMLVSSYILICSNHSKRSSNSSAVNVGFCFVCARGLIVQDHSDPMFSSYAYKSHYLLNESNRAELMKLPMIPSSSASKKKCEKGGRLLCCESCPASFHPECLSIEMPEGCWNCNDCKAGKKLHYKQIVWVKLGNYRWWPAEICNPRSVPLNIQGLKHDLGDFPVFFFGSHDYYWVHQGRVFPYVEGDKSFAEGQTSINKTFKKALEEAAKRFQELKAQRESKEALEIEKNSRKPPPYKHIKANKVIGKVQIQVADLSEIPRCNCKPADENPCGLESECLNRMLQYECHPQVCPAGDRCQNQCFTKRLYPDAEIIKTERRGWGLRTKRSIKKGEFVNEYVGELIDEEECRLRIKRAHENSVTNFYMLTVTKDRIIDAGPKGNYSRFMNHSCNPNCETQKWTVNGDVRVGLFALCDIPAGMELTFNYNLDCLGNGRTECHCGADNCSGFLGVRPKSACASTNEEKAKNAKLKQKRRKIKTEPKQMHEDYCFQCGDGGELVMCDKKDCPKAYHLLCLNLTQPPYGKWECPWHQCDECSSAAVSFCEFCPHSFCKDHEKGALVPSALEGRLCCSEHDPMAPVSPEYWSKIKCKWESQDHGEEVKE
Method: as §1

WRN (ext.) = WRN (ext.) (Homo sapiens, UniProt Q14191); test: WRN ADP-Glo, Target #2
Sequence of WRN (ext.) (Q14191 whole entry, species assumed): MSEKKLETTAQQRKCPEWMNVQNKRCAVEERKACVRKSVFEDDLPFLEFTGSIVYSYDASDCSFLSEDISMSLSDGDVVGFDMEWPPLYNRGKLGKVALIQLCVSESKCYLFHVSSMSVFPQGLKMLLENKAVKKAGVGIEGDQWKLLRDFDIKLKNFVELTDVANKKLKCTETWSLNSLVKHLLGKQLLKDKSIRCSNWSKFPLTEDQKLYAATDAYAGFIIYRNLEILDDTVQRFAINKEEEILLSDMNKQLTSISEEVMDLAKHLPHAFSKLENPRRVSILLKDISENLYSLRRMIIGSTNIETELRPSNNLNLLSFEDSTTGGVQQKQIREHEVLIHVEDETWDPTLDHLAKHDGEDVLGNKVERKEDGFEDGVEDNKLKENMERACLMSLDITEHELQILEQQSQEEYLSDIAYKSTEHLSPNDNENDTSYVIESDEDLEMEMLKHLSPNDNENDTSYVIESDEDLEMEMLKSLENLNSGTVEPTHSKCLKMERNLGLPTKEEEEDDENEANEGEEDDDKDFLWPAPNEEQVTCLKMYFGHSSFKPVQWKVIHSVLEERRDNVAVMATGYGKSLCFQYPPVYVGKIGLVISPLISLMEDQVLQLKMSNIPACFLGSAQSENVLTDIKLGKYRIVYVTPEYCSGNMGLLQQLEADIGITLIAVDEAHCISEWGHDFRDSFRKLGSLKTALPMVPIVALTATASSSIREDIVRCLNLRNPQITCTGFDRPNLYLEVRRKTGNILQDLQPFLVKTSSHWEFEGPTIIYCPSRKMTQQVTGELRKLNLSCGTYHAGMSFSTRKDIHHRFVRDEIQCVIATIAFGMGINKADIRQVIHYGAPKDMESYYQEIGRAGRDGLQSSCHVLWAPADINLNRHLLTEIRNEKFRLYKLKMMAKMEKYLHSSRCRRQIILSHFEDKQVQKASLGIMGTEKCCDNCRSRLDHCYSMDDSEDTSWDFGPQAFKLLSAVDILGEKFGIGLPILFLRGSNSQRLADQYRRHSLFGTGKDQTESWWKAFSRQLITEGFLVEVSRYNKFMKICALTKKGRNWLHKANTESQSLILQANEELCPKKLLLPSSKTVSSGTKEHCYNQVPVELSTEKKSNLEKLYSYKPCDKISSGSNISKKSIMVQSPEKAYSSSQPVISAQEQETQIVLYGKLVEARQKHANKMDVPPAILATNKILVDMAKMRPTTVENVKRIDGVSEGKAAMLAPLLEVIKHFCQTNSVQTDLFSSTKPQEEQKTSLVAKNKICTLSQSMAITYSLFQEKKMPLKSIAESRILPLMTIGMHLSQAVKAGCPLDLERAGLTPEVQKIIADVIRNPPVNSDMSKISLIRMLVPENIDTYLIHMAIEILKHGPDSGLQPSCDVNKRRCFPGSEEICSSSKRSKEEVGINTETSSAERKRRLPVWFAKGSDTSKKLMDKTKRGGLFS
Method: as §1

KRAS GTP = KRAS GTP (Homo sapiens, UniProt P01116, G12D); test: KRAS AlphaScreen, Target #2
Sequence of KRAS GTP (P01116 1-169 isoform P01116-2 G12D): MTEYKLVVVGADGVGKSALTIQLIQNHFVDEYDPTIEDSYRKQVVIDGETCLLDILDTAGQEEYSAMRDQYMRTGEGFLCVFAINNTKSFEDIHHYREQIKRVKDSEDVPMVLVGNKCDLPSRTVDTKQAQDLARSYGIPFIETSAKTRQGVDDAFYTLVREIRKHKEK
Method: as §1

off target [3] = test: FKBP51 AlphaScreen, Target #3
Method: as §1

off-target [4] = test: MDM2 AlphaScreen, Target #2
Method: as §1

off-target [5] = test: FKBP51 AlphaScreen, Target #2
Method: as §1

EGFR = EGFR (Homo sapiens, UniProt P00533); test: EGFR MALDI; settings: read-out: Target #1 IC50
Sequence of EGFR (P00533 25-1210, species assumed): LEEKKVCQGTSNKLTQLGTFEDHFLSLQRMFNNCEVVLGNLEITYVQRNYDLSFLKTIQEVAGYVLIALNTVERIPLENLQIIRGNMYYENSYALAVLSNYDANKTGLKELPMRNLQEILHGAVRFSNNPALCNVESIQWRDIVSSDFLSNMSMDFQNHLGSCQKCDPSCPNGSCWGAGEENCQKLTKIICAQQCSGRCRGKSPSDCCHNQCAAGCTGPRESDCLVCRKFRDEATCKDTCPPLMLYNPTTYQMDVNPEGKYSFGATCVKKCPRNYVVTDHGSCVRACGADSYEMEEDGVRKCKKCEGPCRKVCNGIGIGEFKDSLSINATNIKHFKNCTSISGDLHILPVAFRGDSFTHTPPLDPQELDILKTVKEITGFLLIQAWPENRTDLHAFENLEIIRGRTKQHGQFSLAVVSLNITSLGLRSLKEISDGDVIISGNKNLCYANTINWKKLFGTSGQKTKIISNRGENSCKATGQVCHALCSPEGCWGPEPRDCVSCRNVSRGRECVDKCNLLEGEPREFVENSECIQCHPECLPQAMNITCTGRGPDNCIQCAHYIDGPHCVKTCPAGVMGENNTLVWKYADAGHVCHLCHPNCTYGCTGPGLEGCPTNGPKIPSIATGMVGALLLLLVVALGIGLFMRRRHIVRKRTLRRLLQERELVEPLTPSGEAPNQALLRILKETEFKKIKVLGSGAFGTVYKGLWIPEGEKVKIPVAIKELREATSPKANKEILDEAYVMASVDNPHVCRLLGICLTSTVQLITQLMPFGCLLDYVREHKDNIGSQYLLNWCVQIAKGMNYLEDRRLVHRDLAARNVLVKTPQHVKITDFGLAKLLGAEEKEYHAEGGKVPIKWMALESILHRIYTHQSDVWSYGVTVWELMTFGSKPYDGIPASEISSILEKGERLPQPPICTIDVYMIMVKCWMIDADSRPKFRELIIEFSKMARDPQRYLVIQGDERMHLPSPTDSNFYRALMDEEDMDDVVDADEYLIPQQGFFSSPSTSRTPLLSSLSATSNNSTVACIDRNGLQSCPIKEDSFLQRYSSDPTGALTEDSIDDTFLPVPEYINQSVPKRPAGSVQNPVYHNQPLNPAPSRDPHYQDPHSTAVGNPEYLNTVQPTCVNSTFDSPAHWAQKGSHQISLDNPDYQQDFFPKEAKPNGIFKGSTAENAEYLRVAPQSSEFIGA
Method: as §1

WRN (int.) = WRN (int.) (Homo sapiens, UniProt Q14191); test: WRN ADP-Glo, Target #1
Sequence of WRN (int.) (Q14191 whole entry, species assumed): as the sequence (Q14191 whole entry, species assumed) above
Method: as §1

UPAR = UPAR (Homo sapiens, UniProt Q03405); test: UPA-UPAR AlphaScreen, Target #1
Sequence of UPAR (Q03405 23-305 limits assumed, species assumed): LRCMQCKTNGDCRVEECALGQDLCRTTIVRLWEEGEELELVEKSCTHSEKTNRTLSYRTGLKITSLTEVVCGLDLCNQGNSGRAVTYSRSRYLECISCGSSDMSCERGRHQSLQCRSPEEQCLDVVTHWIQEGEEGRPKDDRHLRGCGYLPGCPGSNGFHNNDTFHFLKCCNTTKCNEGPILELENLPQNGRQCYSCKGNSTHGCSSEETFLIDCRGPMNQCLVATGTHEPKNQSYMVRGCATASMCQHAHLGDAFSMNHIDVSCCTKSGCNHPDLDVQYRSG
Method: as §1

Measured: pIC50

CC(=O)[O-].[Ag+] [Ag (CH 3COO), Silver acetate]
> 6.00: beta-Catenin
5.00 to 6.00: NSD3
not listed: UPAR
< 5.00: all other assays above

O=[N+]([O-])[O-].O=[N+]([O-])[O-].O=[N+]([O-])[O-].[Al+3] [Al(NO3)3, Aluminum nitrate]
5.00 to 6.00: off-target [5]
< 5.00: all other assays above

[Cl][Au]([Cl])[Cl] [AuCl3, Gold(III) chloride]
> 6.00: beta-Catenin | NSD3
5.00 to 6.00: KRAS GDP | WRN (ext.) | KRAS GTP | UPAR
< 5.00: all other assays above

[Cl-].[Cl-].[Co+2] [CoCl2, Cobalt(II) chloride]
5.00 to 6.00: UPAR
< 5.00: all other assays above

[Cl][Cu][Cl] [CuCl2, Copper(II) chloride]
> 6.00: UPAR
5.00 to 6.00: WRN (ext.)
< 5.00: all other assays above

[Cl][Fe][Cl] [FeCl2, Iron(II) chloride]
5.00 to 6.00: KRAS GDP | KRAS GTP
not listed: off-target [4]
< 5.00: all other assays above

[Cl][Fe]([Cl])[Cl] [FeCl3, Iron(III) chloride]
5.00 to 6.00: KRAS GDP | KRAS GTP
< 5.00: all other assays above

[Cl-].[Cl-].[Mg+2] [MgCl2, Magnesium chloride]
5.00 to 6.00: KRAS GTP
< 5.00: all other assays above

[Cl][Mn][Cl] [MnCl2, Manganese(II) chloride]
< 5.00: all assays above

[Cl][Ni][Cl] [NiCl2, Nickel(II) chloride]
> 6.00: UPAR
< 5.00: all other assays above

[Cl][Pd][Cl] [PdCl2, Palladium(II) chloride]
5.00 to 6.00: WRN (ext.)
> 6.00: KRAS GDP | KRAS GTP | UPAR | WRN (int.)
< 5.00: all other assays above

[Cl][Sn][Cl] [SnCl2, Tin(II) chloride]
> 6.00: NSD3
5.00 to 6.00: KRAS GTP
< 5.00: all other assays above

[Cl-].[Cl-].[Zn+2] [ZnCl2, Zinc(II) chloride]
> 6.00: UPAR
5.00 to 6.00: WRN (int.)
< 5.00: all other assays above
